Measurements: US8829034B2, “Compounds which modulate the CB2 receptor” (Boehringer Ingerlheim International GmbH, priority 2006, dated 2014)
Where two headings read alike, the source gives them in different places.

Target: T1, human CB2R (Homo sapiens, UniProt P34972)
T1 construct: host or cells: CHO cells
Test: CB2R mediated modulation of cAMP synthesis
Assay type: cell-based
Details: for agonistic activity: found through the use of the above described assays
Experimental: B. CB2R Mediated Modulation of cAMP Synthesis:
CHO cells expressing human CB2R (Euroscreen) were plated at a density of 5000 cells per well in 384 well plates and incubated overnight at 37° C. After removing the media, the cells were treated with test compounds diluted in stimulation buffer containing 1 mM IBMX, 0.25% BSA and 10 uM Forskolin. The assay was incubated for 30 minutes at 37° C. Cells were lysed and the cAMP concentration was measured using DiscoverX-XS cAMP kit, following the manufacturer's protocol. In this setting, agonists will decrease forskolin induced production of cAMP while inverse agonists will further increase forskolin induced production of cAMP. EC50 of agonists were calculated as follows. The maximal amount of cAMP produced by forskolin compared to the level of cAMP inhibited by 1 uM CP55940 is defined as 100%. The EC50 value of each test compound was determined as the concentration at which 50% of the forskolin-stimulated cAMP synthesis was inhibited. Data was analyzed using a four-parameter logistic model. (Model 205 of XLfit 4.0).

T1 sequence (P34972 whole entry): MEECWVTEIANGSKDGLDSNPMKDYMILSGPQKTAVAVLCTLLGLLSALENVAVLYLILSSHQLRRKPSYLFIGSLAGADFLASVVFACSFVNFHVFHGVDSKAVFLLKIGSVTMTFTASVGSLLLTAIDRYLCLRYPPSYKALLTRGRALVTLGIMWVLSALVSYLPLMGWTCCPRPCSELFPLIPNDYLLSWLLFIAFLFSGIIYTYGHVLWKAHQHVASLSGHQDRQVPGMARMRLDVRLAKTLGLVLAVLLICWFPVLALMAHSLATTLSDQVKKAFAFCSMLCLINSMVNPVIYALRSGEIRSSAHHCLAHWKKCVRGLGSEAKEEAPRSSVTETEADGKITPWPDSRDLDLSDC

CC(C)(C(=O)Nc1cccc2ccccc12)S(=O)(=O)CC1CCOCC1 [2-Methyl-N-naphthalen-1-yl-2-(tetrahydro-pyran-4-ylmethanesulfonyl)-propionamide]
agonistic activity: agonistic activity

CC(C)S(=O)(=O)C(C)(C)C(=O)Nc1ccc2ccccc2c1 [2-Methyl-N-naphthalen-2-yl-2-(propane-2-sulfonyl)-propionamide]
agonistic activity: agonistic activity

CC(C)(C(=O)Nc1ccc2ccccc2n1)S(=O)(=O)CC1CCOCC1 [2-Methyl-N-quinolin-2-yl-2-(tetrahydro-pyran-4-ylmethanesulfonyl)-propionamide]
EC50: 5.8 nM | agonistic activity: agonistic activity

CC(C)(C(=O)Nc1cnc2ccccc2c1)S(=O)(=O)CC1CCOCC1 [2-Methyl-N-quinolin-3-yl-2-(tetrahydro-pyran-4-ylmethanesulfonyl)-propionamide]
EC50: 86 nM | agonistic activity: agonistic activity

CCCS(=O)(=O)C(C)(C)C(=O)Nc1c(C)c(-c2ccccc2)nn1C [N-(2,4-Dimethyl-5-phenyl-2H-pyrazol-3-yl)-2-methyl-2-(propane-1-sulfonyl)-propionamide]
agonistic activity: agonistic activity

Cc1c(-c2ccccc2)nn(C)c1NC(=O)C(C)(C)S(=O)(=O)CC1CCOCC1 [N-(2,4-Dimethyl-5-phenyl-2H-pyrazol-3-yl)-2-methyl-2-(tetrahydro-pyran-4-ylmethanesulfonyl)-propionamide]
agonistic activity: agonistic activity

CC(C)c1cc(NC(=O)C(C)(C)S(=O)(=O)CC2CCOCC2)on1 [N-(3-Isopropyl-isoxazol-5-yl)-2-methyl-2-(tetrahydro-pyran-4-ylmethanesulfonyl)-propionamide]
agonistic activity: agonistic activity

CCC(C)c1cc(NC(=O)C(C)(C)S(=O)(=O)CC2CCOCC2)on1 (centres unmarked) [N-(3-sec-Butyl-isoxazol-5-yl)-2-methyl-2-(tetrahydro-pyran-4-ylmethanesulfonyl)-propionamide]
EC50: 20 nM | agonistic activity: agonistic activity

CC(C)(C)c1cc(NC(=O)C(C)(C)S(=O)(=O)Cc2ccc(F)cc2)on1 [N-(3-tert-Butyl-isoxazol-5-yl)-2-(4-fluoro-phenylmethanesulfonyl)-2-methyl-propionamide]
EC50: 17 nM | agonistic activity: agonistic activity

CC(C)(C)c1cc(NC(=O)C(C)(C)S(=O)(=O)CC2CCC2)on1 [N-(3-tert-Butyl-isoxazol-5-yl)-2-cyclobutylmethanesulfonyl-2-methyl-propionamide]
EC50: 3.7 nM | agonistic activity: agonistic activity

CC(C)(C)c1cc(NC(=O)C(C)(C)S(=O)(=O)C2CCCCC2)on1 [N-(3-tert-Butyl-isoxazol-5-yl)-2-cyclohexanesulfonyl-2-methyl-propionamide]
agonistic activity: agonistic activity

CC(C)(C)c1cc(NC(=O)C(C)(C)S(=O)(=O)CC2CCCCC2)on1 [N-(3-tert-Butyl-isoxazol-5-yl)-2-cyclohexylmethanesulfonyl-2-methyl-propionamide]
EC50: 0.1 nM | agonistic activity: agonistic activity

CC(C)(C)c1cc(NC(=O)C(C)(C)S(=O)(=O)C2CCCC2)on1 [N-(3-tert-Butyl-isoxazol-5-yl)-2-cyclopentanesulfonyl-2-methyl-propionamide]
EC50: 0.9 nM | agonistic activity: agonistic activity

CC(C)(C)c1cc(NC(=O)C(C)(C)S(=O)(=O)CC2CC2)on1 [N-(3-tert-Butyl-isoxazol-5-yl)-2-cyclopropylmethanesulfonyl-2-methyl-propionamide]
EC50: 12.5 nM | agonistic activity: agonistic activity

CC(C)CS(=O)(=O)C(C)(C)C(=O)Nc1cc(C(C)(C)C)no1 [N-(3-tert-Butyl-isoxazol-5-yl)-2-methyl-2-(2-methyl-propane-1-sulfonyl)-propionamide]
EC50: 1.6 nM | agonistic activity: agonistic activity

CC(C)CCS(=O)(=O)C(C)(C)C(=O)Nc1cc(C(C)(C)C)no1 [N-(3-tert-Butyl-isoxazol-5-yl)-2-methyl-2-(3-methyl-butane-1-sulfonyl)-propionamide]
EC50 (CHO cells expressing human CB2R, inhibition of forskolin-stimulated cAMP synthesis, compounds having agonist activity, read-out: CB2 EC50): 0.04 nM | agonistic activity: agonistic activity

CCCS(=O)(=O)C(C)(C)C(=O)Nc1cc(C(C)(C)C)no1 [N-(3-tert-Butyl-isoxazol-5-yl)-2-methyl-2-(propane-1-sulfonyl)-propionamide]
EC50: 89.7 nM | agonistic activity: agonistic activity

CC(C)S(=O)(=O)C(C)(C)C(=O)Nc1cc(C(C)(C)C)no1 [N-(3-tert-Butyl-isoxazol-5-yl)-2-methyl-2-(propane-2-sulfonyl)-propionamide]
agonistic activity: agonistic activity

CC(C)(C)c1cc(NC(=O)C(C)(C)S(=O)(=O)CC2CCCO2)on1 (centres unmarked) [N-(3-tert-Butyl-isoxazol-5-yl)-2-methyl-2-(tetrahydro-furan-2-ylmethanesulfonyl)-propionamide]
EC50: 31.5 nM | agonistic activity: agonistic activity

CC(C)(C)c1cc(NC(=O)C(C)(C)S(=O)(=O)CC2CCOC2)on1 (centres unmarked) [N-(3-tert-Butyl-isoxazol-5-yl)-2-methyl-2-(tetrahydro-furan-3-ylmethanesulfonyl)-propionamide]
EC50: 18.5 nM | agonistic activity: agonistic activity

CC(C)(C)c1cc(NC(=O)C(C)(C)S(=O)(=O)CC2CCCCO2)on1 (centres unmarked) [N-(3-tert-Butyl-isoxazol-5-yl)-2-methyl-2-(tetrahydro-pyran-2-ylmethanesulfonyl)-propionamide]
EC50: 0.2 nM | agonistic activity: agonistic activity

CC(C)(C)c1cc(NC(=O)C(C)(C)S(=O)(=O)C2CCOCC2)on1 [N-(3-tert-Butyl-isoxazol-5-yl)-2-methyl-2-(tetrahydro-pyran-4-sulfonyl)-propionamide]
EC50: 0.1 nM | agonistic activity: agonistic activity

CC(C)(C)c1cc(NC(=O)C(C)(C)S(=O)(=O)CC2CCOCC2)on1 [N-(3-tert-Butyl-isoxazol-5-yl)-2-methyl-2-(tetrahydro-pyran-4-ylmethanesulfonyl)-propionamide]
EC50: 4 nM | agonistic activity: agonistic activity

CCCS(=O)(=O)C(C)(C)C(=O)Nc1cccc(C(C)(C)C)c1 [N-(3-tert-Butyl-phenyl)-2-methyl-2-(propane-1-sulfonyl)-propionamide]
agonistic activity: agonistic activity

CC(C)S(=O)(=O)C(C)(C)C(=O)Nc1cccc(C(C)(C)C)c1 [N-(3-tert-Butyl-phenyl)-2-methyl-2-(propane-2-sulfonyl)-propionamide]
agonistic activity: agonistic activity

CC(C)(C)c1cccc(NC(=O)C(C)(C)S(=O)(=O)CC2CCOCC2)c1 [N-(3-tert-Butyl-phenyl)-2-methyl-2-(tetrahydro-pyran-4-ylmethanesulfonyl)-propionamide]
EC50: 14.3 nM | agonistic activity: agonistic activity

CCCS(=O)(=O)C(C)(C)C(=O)Nc1nc(C2CCCCC2)cs1 [N-(4-Cyclohexyl-thiazol-2-yl)-2-methyl-2-(propane-1-sulfonyl)-propionamide]
EC50: 31.1 nM | agonistic activity: agonistic activity

CC(C)(C(=O)Nc1nc(C2CCCCC2)cs1)S(=O)(=O)CC1CCOCC1 [N-(4-Cyclohexyl-thiazol-2-yl)-2-methyl-2-(tetrahydro-pyran-4-ylmethanesulfonyl)-propionamide]
EC50: 8.3 nM | agonistic activity: agonistic activity

CC(C)(C(=O)Nc1nc(C2CC2)cs1)S(=O)(=O)CC1CCOCC1 [N-(4-Cyclopropyl-thiazol-2-yl)-2-methyl-2-(tetrahydro-pyran-4-ylmethanesulfonyl)-propionamide]
agonistic activity: agonistic activity

CCc1ccnc(NC(=O)C(C)(C)S(=O)(=O)CC2CCOCC2)c1 [N-(4-Ethyl-pyridin-2-yl)-2-methyl-2-(tetrahydro-pyran-4-ylmethanesulfonyl)-propionamide]
agonistic activity: agonistic activity

CCCS(=O)(=O)C(C)(C)C(=O)Nc1ccc(C(C)(C)C)cc1 [N-(4-tert-Butyl-phenyl)-2-methyl-2-(propane-1-sulfonyl)-propionamide]
EC50: 12.3 nM | agonistic activity: agonistic activity

CC(C)S(=O)(=O)C(C)(C)C(=O)Nc1ccc(C(C)(C)C)cc1 [N-(4-tert-Butyl-phenyl)-2-methyl-2-(propane-2-sulfonyl)-propionamide]
agonistic activity: agonistic activity

CC(C)(C)c1ccc(NC(=O)C(C)(C)S(=O)(=O)CC2CCOCC2)cc1 [N-(4-tert-Butyl-phenyl)-2-methyl-2-(tetrahydro-pyran-4-ylmethanesulfonyl)-propionamide]
EC50: 3.3 nM | agonistic activity: agonistic activity

CC(C)(C)c1csc(NC(=O)C(C)(C)S(=O)(=O)Cc2ccc(Cl)cc2)n1 [N-(4-tert-Butyl-thiazol-2-yl)-2-(4-chloro-phenylmethanesulfonyl)-2-methyl-propionamide]
agonistic activity: agonistic activity

CC(C)S(=O)(=O)C(C)C(=O)Nc1nc(C(C)(C)C)cs1 (centres unmarked) [N-(4-tert-Butyl-thiazol-2-yl)-2-(propane-2-sulfonyl)-propionamide]
agonistic activity: agonistic activity

CC(C)(C)c1csc(NC(=O)C(C)(C)S(=O)(=O)C2CCCC2)n1 [N-(4-tert-Butyl-thiazol-2-yl)-2-cyclopentanesulfonyl-2-methyl-propionamide]
EC50: 19 nM | agonistic activity: agonistic activity

CC(C)(C)c1csc(NC(=O)C(C)(C)S(C)(=O)=O)n1 [N-(4-tert-Butyl-thiazol-2-yl)-2-methanesulfonyl-2-methyl-propionamide]
agonistic activity: agonistic activity
